Assays:
Assay in all cases: KINOMEscan competition binding
Conditions in all cases: compound 10.0 µM
MAPK3 (human) = MAPK3 (human) (UniProt P27361)
MARK1 (human) = MARK1 (human) (UniProt Q9P0L2)
MYO3A (human) = MYO3A (human) (UniProt Q8NEV4)
PRKD2 (human) = PRKD2 (human) (UniProt Q9BZL6)
CAMKK1 (human) = CAMKK1 (human) (UniProt Q8N5S9)
[1] = system: MET (human), P08581 [Y1235D]
NEK7 (human) = NEK7 (human) (UniProt Q8TDX7)
BRSK1 (human) = BRSK1 (human) (UniProt Q8TDC3)
GRK4 (human) = GRK4 (human) (UniProt P32298)
ROCK1 (human) = ROCK1 (human) (UniProt Q13464)
NTRK1 (human) = NTRK1 (human) (UniProt P04629)
MAPK10 (human) = MAPK10 (human) (UniProt P53779)
TNK1 (human) = TNK1 (human) (UniProt Q13470)
ICK (human) = ICK (human) (UniProt Q9UPZ9)
[2] = system: RET (human), P07949 [M918T]
CDK4 CCND1 (human) = CDK4 CCND1 (human) (UniProt P11802+P24385)
ADCK3 (human) = ADCK3 (human) (UniProt Q8NI60)
TLK1 (human) = TLK1 (human) (UniProt Q9UKI8)
LTK (human) = LTK (human) (UniProt P29376)
RPS6KA1 KD1 (human) = RPS6KA1 KD1 (human) (UniProt Q15418)
EPHB4 (human) = EPHB4 (human) (UniProt P54760)
CDK18 (human) = CDK18 (human) (UniProt Q07002)
PKN3 (M.tuberculosis) = PKN3 (M.tuberculosis) (UniProt Q6P5Z2)
NEK11 (human) = NEK11 (human) (UniProt Q8NG66)
SRPK1 (human) = SRPK1 (human) (UniProt Q96SB4)
BMPR1B (human) = BMPR1B (human) (UniProt O00238)
FGFR4 (human) = FGFR4 (human) (UniProt P22455)
PAK6 (human) = PAK6 (human) (UniProt Q9NQU5)
TBK1 (human) = TBK1 (human) (UniProt Q9UHD2)
AURKC (human) = AURKC (human) (UniProt Q9UQB9)
MAP4K1 (human) = MAP4K1 (human) (UniProt Q92918)
CDC42BPB (human) = CDC42BPB (human) (UniProt Q9Y5S2)
TEK (human) = TEK (human) (UniProt Q02763)
MAP3K2 (human) = MAP3K2 (human) (UniProt Q9Y2U5)
CSK (human) = CSK (human) (UniProt P41240)
PRKG1 (human) = PRKG1 (human) (UniProt Q13976)
CDK17 (human) = CDK17 (human) (UniProt Q00537)
CaMK1 (human) = CaMK1 (human) (UniProt Q14012)
MAPK15 (human) = MAPK15 (human) (UniProt Q8TD08)
RPS6KA5 KD1 (human) = RPS6KA5 KD1 (human) (UniProt O75582)

Chain of ADCK3 (human) (Q8NI60 whole entry, looked up): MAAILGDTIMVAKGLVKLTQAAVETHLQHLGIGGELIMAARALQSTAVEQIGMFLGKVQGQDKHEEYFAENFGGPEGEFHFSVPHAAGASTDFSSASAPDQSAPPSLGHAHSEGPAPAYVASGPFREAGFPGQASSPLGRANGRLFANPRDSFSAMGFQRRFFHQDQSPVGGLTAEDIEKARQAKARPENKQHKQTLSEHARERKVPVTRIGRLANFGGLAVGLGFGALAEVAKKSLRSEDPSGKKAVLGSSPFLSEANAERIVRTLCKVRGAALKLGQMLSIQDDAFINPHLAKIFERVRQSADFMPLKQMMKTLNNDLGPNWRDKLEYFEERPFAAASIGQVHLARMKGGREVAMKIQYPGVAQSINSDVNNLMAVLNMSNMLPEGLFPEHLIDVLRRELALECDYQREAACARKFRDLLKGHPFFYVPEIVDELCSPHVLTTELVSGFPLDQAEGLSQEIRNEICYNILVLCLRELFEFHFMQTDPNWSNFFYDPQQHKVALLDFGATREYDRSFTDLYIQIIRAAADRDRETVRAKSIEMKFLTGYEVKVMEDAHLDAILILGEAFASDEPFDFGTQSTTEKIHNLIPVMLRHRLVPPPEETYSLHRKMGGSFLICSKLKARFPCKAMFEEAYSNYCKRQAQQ
Chain of CDK17 (human) (Q00537 whole entry, looked up): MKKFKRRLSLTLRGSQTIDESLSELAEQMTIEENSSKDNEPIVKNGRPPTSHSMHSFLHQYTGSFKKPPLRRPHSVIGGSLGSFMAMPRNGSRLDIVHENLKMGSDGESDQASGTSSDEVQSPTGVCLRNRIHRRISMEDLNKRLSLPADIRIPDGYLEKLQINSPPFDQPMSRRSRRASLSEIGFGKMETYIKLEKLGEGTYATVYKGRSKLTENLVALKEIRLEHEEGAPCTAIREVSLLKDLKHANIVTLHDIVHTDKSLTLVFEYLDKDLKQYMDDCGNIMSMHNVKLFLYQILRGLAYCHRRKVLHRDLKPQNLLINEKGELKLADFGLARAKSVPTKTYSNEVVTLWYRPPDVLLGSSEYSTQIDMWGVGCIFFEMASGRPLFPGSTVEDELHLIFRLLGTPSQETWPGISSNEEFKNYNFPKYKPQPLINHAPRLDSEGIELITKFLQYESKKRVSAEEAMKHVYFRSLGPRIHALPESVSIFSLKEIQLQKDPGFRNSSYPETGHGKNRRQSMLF
Chain of PRKD2 (human) (Q9BZL6 whole entry, looked up): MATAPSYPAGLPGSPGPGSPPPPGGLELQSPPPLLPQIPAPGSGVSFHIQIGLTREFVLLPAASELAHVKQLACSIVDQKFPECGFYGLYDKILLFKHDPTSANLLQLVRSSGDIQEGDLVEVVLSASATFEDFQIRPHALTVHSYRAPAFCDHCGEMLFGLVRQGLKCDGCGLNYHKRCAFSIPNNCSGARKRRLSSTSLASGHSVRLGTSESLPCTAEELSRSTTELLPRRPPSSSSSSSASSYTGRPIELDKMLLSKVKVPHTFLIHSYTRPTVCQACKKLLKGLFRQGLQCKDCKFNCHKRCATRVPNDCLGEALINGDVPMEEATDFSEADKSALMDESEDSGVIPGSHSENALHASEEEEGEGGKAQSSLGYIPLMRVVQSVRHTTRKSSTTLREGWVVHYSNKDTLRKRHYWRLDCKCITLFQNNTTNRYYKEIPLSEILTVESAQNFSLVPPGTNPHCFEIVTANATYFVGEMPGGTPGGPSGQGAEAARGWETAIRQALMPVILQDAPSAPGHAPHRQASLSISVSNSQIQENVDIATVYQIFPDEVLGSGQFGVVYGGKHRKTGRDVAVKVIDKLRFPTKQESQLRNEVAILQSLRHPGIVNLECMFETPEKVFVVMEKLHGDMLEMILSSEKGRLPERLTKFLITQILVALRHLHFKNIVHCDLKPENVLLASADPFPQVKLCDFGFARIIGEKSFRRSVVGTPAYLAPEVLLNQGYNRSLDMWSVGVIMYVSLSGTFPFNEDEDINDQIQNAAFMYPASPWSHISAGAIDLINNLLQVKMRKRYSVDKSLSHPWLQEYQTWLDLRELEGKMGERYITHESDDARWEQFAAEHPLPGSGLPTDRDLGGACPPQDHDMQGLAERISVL
Chain of PAK6 (human) (Q9NQU5 whole entry, looked up): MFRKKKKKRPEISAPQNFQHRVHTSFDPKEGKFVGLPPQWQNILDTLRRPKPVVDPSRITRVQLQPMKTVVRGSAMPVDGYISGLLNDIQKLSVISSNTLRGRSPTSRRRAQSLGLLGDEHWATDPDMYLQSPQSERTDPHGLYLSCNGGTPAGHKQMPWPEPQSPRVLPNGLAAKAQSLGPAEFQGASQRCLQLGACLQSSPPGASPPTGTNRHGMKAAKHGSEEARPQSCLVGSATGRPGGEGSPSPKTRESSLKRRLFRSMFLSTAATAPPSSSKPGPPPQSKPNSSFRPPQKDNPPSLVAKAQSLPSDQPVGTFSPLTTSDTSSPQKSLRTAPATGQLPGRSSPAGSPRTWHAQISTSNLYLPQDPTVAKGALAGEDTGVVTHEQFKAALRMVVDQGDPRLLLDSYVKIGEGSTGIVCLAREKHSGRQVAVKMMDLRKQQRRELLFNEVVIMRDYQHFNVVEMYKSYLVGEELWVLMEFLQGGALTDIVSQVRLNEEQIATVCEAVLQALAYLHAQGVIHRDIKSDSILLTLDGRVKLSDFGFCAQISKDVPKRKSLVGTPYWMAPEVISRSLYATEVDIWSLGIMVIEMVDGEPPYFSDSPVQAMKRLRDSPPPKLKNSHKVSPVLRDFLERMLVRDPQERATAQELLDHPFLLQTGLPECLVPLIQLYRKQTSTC
Chain of LTK (human) (P29376 whole entry, looked up): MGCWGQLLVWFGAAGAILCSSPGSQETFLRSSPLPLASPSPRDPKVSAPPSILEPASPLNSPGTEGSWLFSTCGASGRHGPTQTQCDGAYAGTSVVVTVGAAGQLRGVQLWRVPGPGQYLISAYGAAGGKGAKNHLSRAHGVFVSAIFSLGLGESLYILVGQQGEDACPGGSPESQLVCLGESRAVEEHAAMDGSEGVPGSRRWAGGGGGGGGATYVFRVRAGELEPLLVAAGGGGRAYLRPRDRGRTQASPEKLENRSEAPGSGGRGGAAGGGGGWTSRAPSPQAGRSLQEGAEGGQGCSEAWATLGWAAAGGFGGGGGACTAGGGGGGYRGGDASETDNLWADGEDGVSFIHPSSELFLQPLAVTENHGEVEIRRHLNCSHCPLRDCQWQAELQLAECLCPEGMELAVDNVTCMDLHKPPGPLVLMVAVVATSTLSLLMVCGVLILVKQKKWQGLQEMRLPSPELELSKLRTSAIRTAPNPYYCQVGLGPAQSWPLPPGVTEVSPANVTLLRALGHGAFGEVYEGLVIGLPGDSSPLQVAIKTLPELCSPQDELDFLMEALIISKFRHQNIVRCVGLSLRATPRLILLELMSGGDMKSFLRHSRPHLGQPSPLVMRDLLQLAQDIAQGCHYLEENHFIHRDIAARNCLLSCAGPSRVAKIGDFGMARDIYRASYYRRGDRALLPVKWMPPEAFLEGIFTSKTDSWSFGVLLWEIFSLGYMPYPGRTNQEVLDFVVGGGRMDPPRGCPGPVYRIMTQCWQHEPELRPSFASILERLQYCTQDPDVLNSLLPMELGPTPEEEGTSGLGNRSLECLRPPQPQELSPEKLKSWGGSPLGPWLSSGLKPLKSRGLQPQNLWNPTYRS
Chain of TBK1 (human) (Q9UHD2 whole entry, looked up): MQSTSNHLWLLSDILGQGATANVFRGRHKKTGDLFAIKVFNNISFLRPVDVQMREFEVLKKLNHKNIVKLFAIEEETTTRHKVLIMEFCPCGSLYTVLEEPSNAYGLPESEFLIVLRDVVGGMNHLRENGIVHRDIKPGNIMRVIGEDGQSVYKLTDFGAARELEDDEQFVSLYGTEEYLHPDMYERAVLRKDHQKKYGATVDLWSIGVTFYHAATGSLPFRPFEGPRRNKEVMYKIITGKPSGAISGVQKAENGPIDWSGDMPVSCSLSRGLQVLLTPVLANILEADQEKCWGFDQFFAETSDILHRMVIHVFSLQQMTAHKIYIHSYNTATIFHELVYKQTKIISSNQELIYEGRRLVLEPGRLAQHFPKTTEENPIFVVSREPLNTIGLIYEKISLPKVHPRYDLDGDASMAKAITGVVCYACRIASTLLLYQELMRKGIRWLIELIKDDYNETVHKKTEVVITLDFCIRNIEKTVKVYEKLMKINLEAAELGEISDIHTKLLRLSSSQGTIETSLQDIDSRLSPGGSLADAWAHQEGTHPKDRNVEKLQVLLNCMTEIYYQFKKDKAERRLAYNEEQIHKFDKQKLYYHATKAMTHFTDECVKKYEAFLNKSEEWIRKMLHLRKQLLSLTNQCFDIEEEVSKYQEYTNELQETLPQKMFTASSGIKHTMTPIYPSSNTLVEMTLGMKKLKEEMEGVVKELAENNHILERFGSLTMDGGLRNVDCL
Chain of RPS6KA1 KD1 (human) (Q15418 whole entry, looked up): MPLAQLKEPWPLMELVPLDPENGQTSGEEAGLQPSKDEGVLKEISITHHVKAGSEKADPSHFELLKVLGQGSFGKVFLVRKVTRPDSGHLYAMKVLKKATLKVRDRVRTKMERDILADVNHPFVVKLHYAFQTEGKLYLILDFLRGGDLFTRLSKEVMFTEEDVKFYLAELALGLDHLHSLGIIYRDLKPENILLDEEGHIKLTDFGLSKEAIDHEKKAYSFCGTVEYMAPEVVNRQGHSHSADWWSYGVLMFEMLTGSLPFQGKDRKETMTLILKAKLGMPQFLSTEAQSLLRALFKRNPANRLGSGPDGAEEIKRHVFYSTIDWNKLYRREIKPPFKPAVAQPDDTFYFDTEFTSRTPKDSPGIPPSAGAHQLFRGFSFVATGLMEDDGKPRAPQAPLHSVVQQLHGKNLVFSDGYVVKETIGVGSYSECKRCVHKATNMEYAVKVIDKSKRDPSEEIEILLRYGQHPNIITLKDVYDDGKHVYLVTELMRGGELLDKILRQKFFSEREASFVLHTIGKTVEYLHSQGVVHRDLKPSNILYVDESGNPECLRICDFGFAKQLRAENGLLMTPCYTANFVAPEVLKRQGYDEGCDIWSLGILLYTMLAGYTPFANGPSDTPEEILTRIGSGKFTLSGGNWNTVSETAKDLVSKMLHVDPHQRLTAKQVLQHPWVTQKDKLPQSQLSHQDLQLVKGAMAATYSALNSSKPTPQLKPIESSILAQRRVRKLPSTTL

Row | Compound | kinase still bound, per cent of control (MAPK3 (human)) | kinase still bound, per cent of control (MARK1 (human)) | kinase still bound, per cent of control (MYO3A (human)) | kinase still bound, per cent of control (PRKD2 (human)) | kinase still bound, per cent of control (CAMKK1 (human)) | kinase still bound, per cent of control [1] | kinase still bound, per cent of control (NEK7 (human)) | kinase still bound, per cent of control (BRSK1 (human)) | kinase still bound, per cent of control (GRK4 (human)) | kinase still bound, per cent of control (ROCK1 (human)) | kinase still bound, per cent of control (NTRK1 (human)) | kinase still bound, per cent of control (MAPK10 (human)) | kinase still bound, per cent of control (TNK1 (human)) | kinase still bound, per cent of control (ICK (human)) | kinase still bound, per cent of control [2] | kinase still bound, per cent of control (CDK4 CCND1 (human)) | kinase still bound, per cent of control (ADCK3 (human)) | kinase still bound, per cent of control (TLK1 (human)) | kinase still bound, per cent of control (LTK (human)) | kinase still bound, per cent of control (RPS6KA1 KD1 (human)) | further results
1 | O=C1NC(=O)/C(=C/c2ccc3nccc(-c4ccncc4)c3c2)S1 | 100% | 74% | 85% | 90% | 12% | 94% | 88% | 73% | 47% | 51% | 78% | 26% | 52% | 46% | 93% | 92% | 93% | 81% | 22% | 51% | kinase still bound, per cent of control (EPHB4 (human)): 74%; kinase still bound, per cent of control (CDK18 (human)): 56%; kinase still bound, per cent of control (PKN3 (M.tuberculosis)): 36%; kinase still bound, per cent of control (NEK11 (human)): 72%; kinase still bound, per cent of control (SRPK1 (human)): 100%; kinase still bound, per cent of control (BMPR1B (human)): 3.7%; kinase still bound, per cent of control (FGFR4 (human)): 59%; kinase still bound, per cent of control (PAK6 (human)): 83%; kinase still bound, per cent of control (TBK1 (human)): 29%; kinase still bound, per cent of control (AURKC (human)): 56%; kinase still bound, per cent of control (MAP4K1 (human)): 26%; kinase still bound, per cent of control (CDC42BPB (human)): 66%; kinase still bound, per cent of control (TEK (human)): 98%; kinase still bound, per cent of control (MAP3K2 (human)): 90%; kinase still bound, per cent of control (CSK (human)): 80%; kinase still bound, per cent of control (PRKG1 (human)): 75%; kinase still bound, per cent of control (CDK17 (human)): 59%; kinase still bound, per cent of control (CaMK1 (human)): 65%; kinase still bound, per cent of control (MAPK15 (human)): 0.05%; kinase still bound, per cent of control (RPS6KA5 KD1 (human)): 100%
2 | CCN1CCN(C(=O)Cc2ccc(Nc3ncc(F)c(Nc4ccc(C(=O)Nc5ccccc5Cl)cc4)n3)cc2)CC1 | 100% | 51% | 100% | 100% | 25% | 23% | 2.6% | 88% | 8.8% | 81% | 19% | 0.8% | 1.3% | 100% | 0.55% | 34% | 43% | 19% | 32% | 45% | kinase still bound, per cent of control (EPHB4 (human)): 76%; kinase still bound, per cent of control (CDK18 (human)): 43%; kinase still bound, per cent of control (PKN3 (M.tuberculosis)): 5%; kinase still bound, per cent of control (NEK11 (human)): 100%; kinase still bound, per cent of control (SRPK1 (human)): 1.9%; kinase still bound, per cent of control (BMPR1B (human)): 22%; kinase still bound, per cent of control (FGFR4 (human)): 71%; kinase still bound, per cent of control (PAK6 (human)): 65%; kinase still bound, per cent of control (TBK1 (human)): 5.6%; kinase still bound, per cent of control (AURKC (human)): 1.2%; kinase still bound, per cent of control (MAP4K1 (human)): 38%; kinase still bound, per cent of control (CDC42BPB (human)): 100%; kinase still bound, per cent of control (TEK (human)): 48%; kinase still bound, per cent of control (MAP3K2 (human)): 31%; kinase still bound, per cent of control (CSK (human)): 73%; kinase still bound, per cent of control (PRKG1 (human)): 100%; kinase still bound, per cent of control (CDK17 (human)): 35%; kinase still bound, per cent of control (CaMK1 (human)): 14%; kinase still bound, per cent of control (MAPK15 (human)): 54%; kinase still bound, per cent of control (RPS6KA5 KD1 (human)): 100%

From the kinase profiling compilation of Christmann-Franck et al. (2016)
